The values below are quoted from earlier work in patent publication US20110028498A1, “METHOD FOR EVALUATING PATIENTS FOR TREATMENT WITH DRUGS TARGETING RET RECEPTOR TYROSINE KINASE” (priority 2006, published 2011).

This data set deals with RET-dependent thyroid tumour cell growth. The note with it: in vitro, literature.

Consider `COc1cc2c(Nc3ccc(Br)cc3F)ncnc2cc1OCC1CCN(C)CC1` [vandetanib, 4-(4-bromo-2-fluoroanilino)-6-methoxy-7-(1-methylpiperidin-4-ylmethoxy)quinazoline], for which the “growth-inhibitory effect on RET-dependent thyroid tumour cell growth” value was “strong growth-inhibitory effect”.
